GI50 and IC50 data for 23 compounds are collected here from patent US8242280B2, “Fused ring heterocycle kinase modulators” (SGX Pharmaceuticals, Inc., priority 2007, dated 2012).

The target in experiment [1] is Ba/F3 cells, ABL1 T315I (Homo sapiens, UniProt P00519, T315I, cells depend on it). Put plainly: 96-well XTT cell survival assay, Ba/F3 ABL1 T315I. The format is cell-based. The conditions noted are these: 72 hours, read-out: ABL1 T315I XTT [Ba/F3] IC50. In short, it runs like this: (§1)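 Ba/F3 cells carrying wild-type or T315I ABL1 were seeded at 5000-8000 per well with graded compound concentrations in duplicate and grown 72 hours at 37° C. Survival was read by XTT/PMS reduction after a further 2-6 h, as absorbance at 405 nm with 650 nm background correction.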
For orientation: Tetrazolium dyes change colour on reduction, which living cells bring about.

Experiment [2] has as its target T1, unphosphorylated T315I Abl kinase domain (Mus musculus, UniProt P00520, T315I).
T1 construct: purified and unphosphorylated T315I Abl kinase domain; made in house; host or cells: E. coli BL21(DE3) (Codon+RIL or pSA0145 strain)
T1 sequence (P00520 242-493 T315I limits assumed): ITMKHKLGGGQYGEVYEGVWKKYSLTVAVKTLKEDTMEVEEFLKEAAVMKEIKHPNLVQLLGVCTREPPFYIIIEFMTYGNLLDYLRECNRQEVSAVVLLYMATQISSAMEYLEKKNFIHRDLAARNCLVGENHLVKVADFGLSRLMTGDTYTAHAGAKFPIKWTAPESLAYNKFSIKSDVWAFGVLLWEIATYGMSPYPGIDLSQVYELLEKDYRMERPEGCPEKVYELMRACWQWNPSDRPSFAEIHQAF
Briefly: c-Abl T315I 0P bioassay (pyruvate kinase/lactate dehydrogenase coupled enzyme assay). To be noted: zero phosphorylation state (0P), 10 μM ATP, read-out: AbI T315I 0P IC50. The format is biochemical.

The target in experiment [3] is Ba/F3 cells, ABL1 WT (Homo sapiens, UniProt P00519). Put plainly: 96-well XTT cell survival assay, Ba/F3 ABL1 WT. Type of experiment: cell-based. The conditions noted are these: 72 hours, read-out: ABL1 WT XTT [Ba/F3] IC50. The essentials: as §1

Broadly, the IC50 is the concentration at which inhibition is half-maximal. In the case of `COc1ccccc1-c1n[nH]c2ncc(-c3cccc([C@H](O)[C@@H](O)C(C)C)c3)cc12`, the GI50 in experiment [1] and in experiment [3] was less than 1 µM in each case. The IC50 in experiment [2] is less than 0.05 µM.
For the compound `COc1ccccc1-c1n[nH]c2ncc(-c3cccc(C(C)C(=O)N4CCC(O)CC4)c3)cc12` (stereo not drawn), the GI50 in experiment [1] was more than 1 µM; in experiment [3], less than 1 µM. Besides, the IC50 in experiment [2] was less than 0.05 µM.
The matching figures for `Cc1n[nH]cc1-c1c[nH]c2ncc(-c3cncc(C(O)C(=O)N(C)C)c3)cc12` (stereo not drawn): more than 1 µM, more than 1 µM and less than 0.05 µM.
On the same counts, the results for `COc1ccccc1-c1c[nH]c2ncc(-c3cccc(C(N)CC(=O)N(C)C)c3)cc12` (stereo not drawn) are more than 1 µM, more than 1 µM and less than 0.05 µM.
On the same counts, the results for `CN(C)C(=O)C(O)c1cncc(-c2cnc3[nH]cc(-c4ccnn4CC(F)(F)F)c3c2)c1` (stereo not drawn) are more than 1 µM, more than 1 µM and more than 0.5 µM.
For `COc1ccccc1-c1c[nH]c2ncc(-c3cccc(C(O)C(=O)N(C)CCNC4CC4)c3)cc12` (stereo not drawn), the GI50 in experiment [1] and in experiment [3] was less than 1 µM each time. Moreover, the half-inhibitory concentration (IC50) in experiment [2] is less than 0.05 µM.
As to `COc1ccccc1-c1n[nH]c2ncc(-c3cccc(C(O)C(=O)N4CCC[C@@H]4CO)c3)cc12` (stereo partly drawn), the GI50 in experiment [1] and in experiment [3] was less than 1 µM throughout. Moreover, in experiment [2], the IC50 is less than 0.05 µM.
On to `CN(C)C(=O)C(O)c1cncc(-c2cnc3[nH]cc(-c4ccccc4F)c3c2)c1` (stereo not drawn), for which the GI50 in experiment [1] and in experiment [3] was less than 1 µM in each case. Moreover, the IC50 in experiment [2] is less than 0.05 µM.
As to `COc1ccccc1-c1n[nH]c2ncc(-c3cccc(C(N)C(=O)N(C)CCN(C)C)c3)cc12` (stereo not drawn), the GI50 in experiment [1] and in experiment [3] was more than 1 µM in each case. For the same compound, the IC50 in experiment [2] was less than 0.05 µM.
With `COc1ccccc1-c1n[nH]c2ncc(-c3cccc(C(O)C(=O)N(C)CCO)c3)cc12` (stereo not drawn), the GI50 in experiment [1] and in experiment [3] was less than 1 µM in each case. The concentration for half-maximal inhibition (IC50) in experiment [2] was less than 0.05 µM.
Turning to `COc1ccccc1-c1n[nH]c2ncc(-c3cccc(C(OC)C(=O)N(C)C)c3)cc12` (stereo not drawn), the GI50 in experiment [1] and in experiment [3] was less than 1 µM throughout. Besides, the IC50 in experiment [2] was less than 0.05 µM.
Take `Cc1ccc(-c2c[nH]c3ncc(-c4cncc(C(O)C(=O)N(C)C)c4)cc23)cc1` (stereo not drawn): the GI50 in experiment [1] and in experiment [3] was more than 1 µM throughout. The IC50 in experiment [2] was less than 0.05 µM.
With `COc1ccccc1-c1n[nH]c2ncc(-c3cccc([C@H](O)[C@H](O)C(C)C)c3)cc12`, the GI50 in experiment [1] and in experiment [3] was less than 1 µM each time. Also, the IC50 in experiment [2] is less than 0.05 µM.
As for `COc1ccccc1-c1n[nH]c2ncc(-c3cccc(C(O)C(=O)N(C)C4CCN(C)C4)c3)cc12` (stereo not drawn), the GI50 in experiment [1] and in experiment [3] was less than 1 µM throughout. In addition, the IC50 in experiment [2] was less than 0.05 µM.
As for `COc1ccccc1-c1c[nH]c2ncc(-c3cc(C(C#N)C(=O)N(C)C)ncn3)cc12` (stereo not drawn), the GI50 in experiment [1] and in experiment [3] was more than 1 µM in each case. For the same compound, the IC50 in experiment [2] was more than 0.5 µM.
Regarding `CN(C)C(=O)C(O)c1cncc(-c2cnc3[nH]cc(-c4cncnc4)c3c2)c1` (stereo not drawn), the GI50 in experiment [1] and in experiment [3] was more than 1 µM each time. The IC50 in experiment [2] was more than 0.5 µM.
In the case of `COc1ccc(-c2c[nH]c3ncc(-c4cncc(C(O)C(=O)N(C)C)c4)cc23)cc1` (stereo not drawn), the GI50 in experiment [1] and in experiment [3] was more than 1 µM each time. The IC50 in experiment [2] is less than 0.05 µM.
Take `CN(C)C(=O)C(O)c1cncc(-c2cnc3[nH]cc(-c4ccc(C#N)cc4)c3c2)c1` (stereo not drawn): the GI50 in experiment [1] and in experiment [3] was more than 1 µM each time. For the same compound, the IC50 in experiment [2] is 0.05 to 0.5 µM.
Regarding `COc1ccccc1-c1n[nH]c2ncc(-c3cccc(C(C)C(=O)N(C)CCN(C)C)c3)cc12` (stereo not drawn), the GI50 in experiment [1] and in experiment [3] was more than 1 µM throughout. In experiment [2], the IC50 is less than 0.05 µM.
`COc1ccccc1-c1c[nH]c2ncc(-c3cccc(C(N)C(=O)N(C)CCN(C)C)c3)cc12` (stereo not drawn): the GI50 in experiment [1] and in experiment [3] was more than 1 µM in each case. Further, the IC50 in experiment [2] is less than 0.05 µM.
On to `COc1ccccc1-c1c[nH]c2ncc(-c3cccc(C(O)C(=O)N4CC(O)C4)c3)cc12` (stereo not drawn), for which the figures for the GI50 in experiment [1] and in experiment [3] were more than 1 µM and less than 1 µM, respectively. In addition, the IC50 in experiment [2] was less than 0.05 µM.
The matching figures for `COc1ccccc1-c1n[nH]c2ncc(-c3cccc(C(C)O)c3)cc12` (stereo not drawn): less than 1 µM, less than 1 µM and less than 0.05 µM.
On the same counts, the results for `COc1ccccc1-c1n[nH]c2ncc(-c3cccc([C@@H]4OCO[C@@H]4C(C)C)c3)cc12` are more than 1 µM, more than 1 µM and less than 0.05 µM.
